Laboratory results published in US12371464B2, “Polypeptides and uses thereof” (MEDIMMUNE LIMITED, priority 2020, dated 2025).
Numbered stars: 1 amine (or outer) side, 2 acyl side, 3 side chain; on linkers, the order of the positions; unused ones are H or OH. Bridge positions count the residues as written; N and C are the ends. Side chains are listed from the residue outwards. Peptide text beside a SMILES is read from it. * marks the point of attachment. C20 diacid = O=C(O)CCCCCCCCCCCCCCCCCCC(=O)*; γGlu = O=C(O)[C@H](CCC(=O)[*:2])N[*:1]

What was measured:
[1] = molecular target: T1, rat calcitonin receptor (rat CTR) (Rattus norvegicus, UniProt P32214); test: cAMP production in HEK cells with stable recombinant expression of rat calcitonin receptor (rat CTR); format: cell-based; settings: cAMP HTRF, assay buffer with 0.1% BSA, 30 minutes
T1 construct: expressed in transfected cells
T1 sequence (P32214 25-516): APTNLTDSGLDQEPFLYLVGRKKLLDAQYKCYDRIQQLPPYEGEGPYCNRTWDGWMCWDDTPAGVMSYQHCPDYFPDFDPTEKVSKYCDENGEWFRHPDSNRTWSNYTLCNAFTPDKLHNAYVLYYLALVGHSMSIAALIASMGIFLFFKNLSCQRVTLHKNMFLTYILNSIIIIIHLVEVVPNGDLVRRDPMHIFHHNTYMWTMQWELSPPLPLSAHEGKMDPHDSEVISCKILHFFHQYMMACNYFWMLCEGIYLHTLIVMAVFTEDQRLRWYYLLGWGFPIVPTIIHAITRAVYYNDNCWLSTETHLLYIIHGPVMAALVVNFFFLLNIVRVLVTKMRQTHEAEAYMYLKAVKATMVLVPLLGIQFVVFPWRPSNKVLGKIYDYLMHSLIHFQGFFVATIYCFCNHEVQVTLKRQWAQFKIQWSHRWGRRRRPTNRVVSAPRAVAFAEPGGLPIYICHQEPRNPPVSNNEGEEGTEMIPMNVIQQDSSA
Procedure: The functional activities of lipidated pramlintide analogue peptides, such as cAMP production, were tested in 1321N1 cell line with stable recombinant expression of human calcitonin receptor (hCTR) or human amylin receptor (calcitonin receptor co-expressed with receptor activity modifying protein, RAMP3) (hAMYR3) or HEK cells with stable recombinant expression of rat calcitonin receptor (rat CTR) or rat amylin receptor (calcitonin receptor co-expressed with receptor activity modifying protein, RAMP3) (Rat AMYR3). […]
The test peptide stock was prepared in DMSO and diluted in assay buffer to reach stated concentrations and transferred in duplicates into a 384-black shallow well microtitre assay plate (Corning #3676). Cells were added to the assay plate, incubated at room temperature for 30 minutes and the CAMP level measured using CAMP dynamic 2 HTRF kit (Cisbio, Cat #62AM4PEJ), following the two step protocol as per manufacturer's recommendations. The plates were read on an Envision (Perkin Elmer) using excitation wavelength of 320 nm and emission wavelengths of 620 nm & 665 nm.
Data was transformed to % Delta F as described in the manufacturer's guidelines and analyzed as percent activation of maximal amylin or calcitonin effect by 4-parameter logistic fit to determine EC50 values. […]

[2] = Thioflavin T fibrillation assay; format: physicochemical; settings: 1 mg/mL in 25 mM sodium acetate buffer pH 4.0, 37° C., 6 days, orbital shaking; >144 h = no increase
Summary of the method: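 Peptides at 1 mg/mL in 25 mM sodium acetate pH 4.0 were mixed with ThT (0.25 mM stock) and held 6 days at 37 °C with intermittent orbital shaking at 500–750 rpm. Fluorescence (ex 444/em 480 nm) was read every 30 min, with buffer baseline correction and 5 replicates. Value: mean time to a detectable fluorescence increase.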

EC50 [1]	Time taken to detect increase in fluorescence intensity [2]	Compound
22.6 nM	<5 h	CC[C@H](C)[C@H](NC(=O)[C@H](C)NC(=O)[C@@H]1CCCN1C(=O)[C@H](Cc1ccccc1)NC(=O)[C@H](CC(N)=O)NC(=O)[C@@H]1CCCN1C(=O)[C@H](CO)NC(=O)[C@H](CO)NC(=O)[C@H](Cc1c[nH]cn1)NC(=O)[C@@H](NC(=O)[C@H](CC(C)C)NC(=O)[C@H](Cc1ccccc1)NC(=O)[C@H](CC(N)=O)NC(=O)[C@H](C)NC(=O)[C@H](CC(C)C)NC(=O)[C@H](CCCNC(=N)N)NC(=O)[C@H](CCC(N)=O)NC(=O)[C@@H](NC(=O)[C@H](C)NC(=O)[C@@H]1CSSC[C@H](NC(=O)[C@@H](N)CCCCNC(=O)CC[C@H](NC(=O)CC[C@H](NC(=O)CCCCCCCCCCCCCCCCCCC(=O)O)C(=O)O)C(=O)O)C(=O)N[C@@H](CC(N)=O)C(=O)N[C@@H]([C@@H](C)O)C(=O)N[C@@H](C)C(=O)N[C@@H]([C@@H](C)O)C(=O)N1)[C@@H](C)O)C(C)C)C(=O)N[C@@H](CC(C)C)C(=O)N[C@@H](CO)C(=O)N1CCC[C@H]1C(=O)N[C@H](C(=O)N[C@@H](CC(N)=O)C(=O)N[C@H](C(=O)NCC(=O)N[C@@H](CO)C(=O)N[C@@H](CC(N)=O)C(=O)N[C@H](C(=O)N[C@@H](Cc1ccc(O)cc1)C(N)=O)[C@@H](C)O)C(C)C)[C@@H](C)O [Peptide 115] (H-K([γGlu-γGlu-C20 diacid])CNTATCATQRLANFLVHSSPNFPAILSPTNVGSNTY-NH2; disulfide 2-7; N-terminus assumed)
4.87 nM	<5 h	CC[C@H](C)[C@H](NC(=O)[C@@H]1CCCN1C(=O)CNC(=O)[C@H](Cc1ccccc1)NC(=O)[C@H](CC(N)=O)NC(=O)[C@H](CC(N)=O)NC(=O)[C@H](CO)NC(=O)[C@H](CO)NC(=O)[C@H](Cc1c[nH]cn1)NC(=O)[C@@H](NC(=O)[C@H](CC(C)C)NC(=O)[C@H](Cc1ccccc1)NC(=O)[C@H](CC(N)=O)NC(=O)[C@H](C)NC(=O)[C@H](CC(C)C)NC(=O)[C@H](CCCNC(=N)N)NC(=O)[C@H](CCC(N)=O)NC(=O)[C@@H](NC(=O)[C@H](C)NC(=O)[C@@H]1CSSC[C@H](NC(=O)[C@@H](N)CCCCNC(=O)CC[C@H](NC(=O)CC[C@H](NC(=O)CCCCCCCCCCCCCCCCCCC(=O)O)C(=O)O)C(=O)O)C(=O)N[C@@H](CC(N)=O)C(=O)N[C@@H]([C@@H](C)O)C(=O)N[C@@H](C)C(=O)N[C@@H]([C@@H](C)O)C(=O)N1)[C@@H](C)O)C(C)C)C(=O)N[C@@H](CC(C)C)C(=O)N1CCC[C@H]1C(=O)N1CCC[C@H]1C(=O)N[C@H](C(=O)N[C@@H](CC(N)=O)C(=O)N[C@H](C(=O)NCC(=O)N[C@@H](CO)C(=O)N[C@@H](CCCNC(=N)N)C(=O)N[C@H](C(=O)N[C@@H](Cc1ccc(O)cc1)C(N)=O)[C@@H](C)O)C(C)C)[C@@H](C)O [Peptide 114] (H-K([γGlu-γGlu-C20 diacid])CNTATCATQRLANFLVHSSNNFGPILPPTNVGSRTY-NH2; disulfide 2-7; N-terminus assumed)
